# Assay results: patent US20130203718A1 (priority 2010, published 2013)
# Columns and labels:
# hAR = molecular target: T1, hAR (Homo sapiens, UniProt P10275); test: APRn selectivity: transactivation in HEK293T cells transiently expressing hAR; type: cell-based; settings: HEK293T, FIG. 11
# T1 construct: expressed in transfected cells; host or cells: HEK 293T
# T1 sequence (P10275 1-920): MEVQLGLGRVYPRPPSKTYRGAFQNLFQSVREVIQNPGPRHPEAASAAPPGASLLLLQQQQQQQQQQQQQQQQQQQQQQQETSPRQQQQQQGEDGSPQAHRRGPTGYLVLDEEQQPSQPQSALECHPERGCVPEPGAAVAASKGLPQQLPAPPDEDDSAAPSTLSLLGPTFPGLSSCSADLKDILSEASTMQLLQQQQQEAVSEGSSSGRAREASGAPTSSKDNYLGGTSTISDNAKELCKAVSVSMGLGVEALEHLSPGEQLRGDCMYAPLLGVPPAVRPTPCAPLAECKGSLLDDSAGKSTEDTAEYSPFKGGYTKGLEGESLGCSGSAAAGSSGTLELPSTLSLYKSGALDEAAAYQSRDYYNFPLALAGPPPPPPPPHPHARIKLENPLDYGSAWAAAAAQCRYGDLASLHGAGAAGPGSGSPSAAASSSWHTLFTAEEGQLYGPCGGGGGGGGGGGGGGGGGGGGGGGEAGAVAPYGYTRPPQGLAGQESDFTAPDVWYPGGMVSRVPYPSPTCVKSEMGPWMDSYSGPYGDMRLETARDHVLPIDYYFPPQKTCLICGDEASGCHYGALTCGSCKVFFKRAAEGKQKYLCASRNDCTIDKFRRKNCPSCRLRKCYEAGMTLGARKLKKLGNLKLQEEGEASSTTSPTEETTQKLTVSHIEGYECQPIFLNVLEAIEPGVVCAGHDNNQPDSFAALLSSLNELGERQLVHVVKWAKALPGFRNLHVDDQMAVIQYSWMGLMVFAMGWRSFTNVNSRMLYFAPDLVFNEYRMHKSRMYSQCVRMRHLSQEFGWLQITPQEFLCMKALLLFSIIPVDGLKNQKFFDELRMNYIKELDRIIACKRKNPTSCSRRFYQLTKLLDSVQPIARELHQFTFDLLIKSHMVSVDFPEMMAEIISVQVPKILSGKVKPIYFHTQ
# Procedure: Measurement of the APRn Selectivity in HEK 293T.
# The HEK-293T cells were cultured and transfected according to the method described above for the PR transactivation assays. The expression vectors pcDNA-hAR, kindly provided by G. A. Coetzee, pchGR (Hellal-Levy, C et al. FEBS Lett 1999, 464, 9), and pchMR (Fagart, J. et al. EMBO J. 1998, 17, 3317) were used for studying the ability of APRn to activate or inactivate the AR, GR and MR, respectively. For each transfection assays, 2 μg of the expression vector was used together with 7 μg of the GRE2-Luc reporter vector. Dihydrotestosterone (DHT), dexamethasone (Dex) and Aldosterone (Aldo) were selected as AR, GR and MR ligands, respectively. They were used at the concentration of 10^−9 M. The APRn agonist and antagonist efficacy for AR, GR and MR were measured as described above for PR. The results are the mean±SEM of three independent experiments.
# Transfection assays were performed in HEK 293T cells by using expression vectors for the hAR, hGR and hMR and the GRE2-Luc reporter used for the PR transactivation assays.
# hPRB = molecular target: T2, hPRB (Homo sapiens, UniProt P06401); test: PR transactivation assay (GRE2-Luc) in HEK293T cells transiently expressing hPRB; type: cell-based; set-up: expressed in transfected cells; host or cells: HEK 293T; settings: series 1 (no C3 substituent), HEK293T, APRn 1 μM, FIG. 1
# T2 sequence (P06401 1-933): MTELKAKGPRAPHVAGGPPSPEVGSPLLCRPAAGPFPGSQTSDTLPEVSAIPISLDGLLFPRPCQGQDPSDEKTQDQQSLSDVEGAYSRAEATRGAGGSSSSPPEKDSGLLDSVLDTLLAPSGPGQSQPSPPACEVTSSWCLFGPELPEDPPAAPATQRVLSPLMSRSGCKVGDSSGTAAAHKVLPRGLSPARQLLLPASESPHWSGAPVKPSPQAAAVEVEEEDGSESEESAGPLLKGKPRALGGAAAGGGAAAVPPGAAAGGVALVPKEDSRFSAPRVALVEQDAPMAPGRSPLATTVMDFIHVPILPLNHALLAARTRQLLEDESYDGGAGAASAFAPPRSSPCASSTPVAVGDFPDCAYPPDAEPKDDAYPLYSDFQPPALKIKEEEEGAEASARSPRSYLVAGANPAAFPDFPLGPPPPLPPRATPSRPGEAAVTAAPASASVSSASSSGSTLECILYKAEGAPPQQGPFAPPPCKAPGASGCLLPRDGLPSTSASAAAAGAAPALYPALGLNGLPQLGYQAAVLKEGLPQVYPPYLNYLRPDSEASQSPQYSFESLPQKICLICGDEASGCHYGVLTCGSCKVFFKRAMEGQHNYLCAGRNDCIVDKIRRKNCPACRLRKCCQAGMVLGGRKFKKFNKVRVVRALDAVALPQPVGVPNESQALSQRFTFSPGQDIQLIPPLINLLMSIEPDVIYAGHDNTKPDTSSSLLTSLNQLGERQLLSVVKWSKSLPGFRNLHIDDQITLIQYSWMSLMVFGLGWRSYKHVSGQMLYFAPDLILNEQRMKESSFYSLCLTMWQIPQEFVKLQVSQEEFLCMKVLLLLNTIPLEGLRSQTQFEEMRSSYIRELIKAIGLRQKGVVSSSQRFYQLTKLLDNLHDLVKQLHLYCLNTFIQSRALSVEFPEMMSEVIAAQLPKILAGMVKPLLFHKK
# Procedure: PR Transactivation Assays in HEK 293T.
# HEK 293T cells were routinely cultured in a high-glucose DMEM medium (Invitrogene, Cergy Pontoise, France), 20 mM HEPES, 2 mM glutamine, 1× non essential amino acids, 100 U/mL penicillin and 100 μg/mL streptomycin supplemented with 10% foetal calf serum (FCS) in a humidified atmosphere at 37° C. and with 5% CO2. One day before transfection, the cells were seeded at 3×10^6 cells/[…] diameter culture Petri dish and cultured overnight in the same medium. Six hours before transfection, the FCS supplemented medium was replaced by the same medium supplemented with 10% dextran-charcoal treated FCS. Transfections were carried out using the calcium phosphate precipitation method. The calcium phosphate precipitate was prepared with 0.5 μg pchPRB (Petit-Topin, et al Mol Pharmacol, 2009, 75, 1317), 7 μg reporter vector (GRE2-Luc from A. Biola-Vidamment and M. Pallardy) and 1 μg of pcβgal for an internal transfection control, in 1 mL 140 mM NaCl, 0.75 mM Na2HPO4, 25 mM HEPES, 125 mM CaCl2 pH 7.05 and added to the cells 30 minutes later. After 16 h incubation, the transfected cells were washed with PBS containing 2.5 mM EDTA, trypsinized and pooled. The transfected cells were replated in 24-well plates (100.000 transfected cells/well). […] Cells were lysed in 300 μl PBS 1×, 25 mM glycylglycine, 4 mM EDTA, 15% glycerol, 1% triton X-100, 15 mM MgSO4, pH 7.8 supplemented with 2 mM β-mercaptoethanol. The luciferase activities were quantified by using a Mithras LB940 reader microplates (Berthold).
# The APRn “agonist efficacy” was determined from the following formula:
# Agonist efficacy=[luciferase activity]1/[luciferase activity]2×100
# The APRn “antagonist efficacy” was calculated from the following formula:
# Antagonist efficacy=100−[luciferase activity]1/[luciferase activity]2×100
# The results are the mean±SEM of three to five independent experiments.
# All the synthesized APRn were classified in 4 series depending on the nature of their C3 substituent (R1/R′1 groups). The first one (series 1) includes APRn with no C3 substituent (R1═R′1═H) whereas series 2, 3 and 4 are related to APRn bearing a methoxyl (R1═OMe), a hydroxyl (R1═OH) and a fluorine atom (R1═F), respectively. The agonist/antagonist activities of APRn were determined either in human HEK293T cells transiently expressing hPRB or in human MDA-MB-231 iPRAB cells conditionally expressing hPRB, by using a luciferase reporter gene placed under the control of a glucocorticoid response element (GRE2-Luc). The APRn “agonist efficacy” was determined from the luciferase activity measured in the presence of APRn (1 μM). […] The “agonist efficacy” and “antagonist efficacy” are expressed as defined in the biological protocols section.
compound,measurement,setting,value
"CC(=O)O[C@H]1CCC2C3CC=C4C=CCC[C@@H]4C3CC[C@@]21C (stereo partly drawn) [APR-49, 17β-Acetoxy-19-nor-androst-3,5-diene]",agonist efficacy towards hAR (in words),hAR,high potent hAR agonists
same,melting point,,94 to 95 °C
same,hPRB agonist/antagonist character (in words),hPRB,full antagonists
